{"source": "PubChem BioAssay AID2060896", "about": "(Molecular Pharmacology Branch, DTP, NCI, 2025)", "test_system": "941728-121-R-J1-PDC complex spheroid viability", "experiment": "Anticancer human tumor 941728-121-R-J1-PDC patient-derived lung adenocarcinoma cell line growth inhibition [RAS]", "conditions": "for IC50: curve of first compound; for viability, T/C: stronger effect = lower value", "summary_of_the_method": "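Multi-cell-type spheroids: tumor cells plus HUVEC endothelial cells and mesenchymal stem cells. RAS-pathway inhibitors were combined with targeted agents, each dosed in half-log steps down from clinical Cmax, or from 10 microM when Cmax was unknown.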"}
{"compound": "CCc1c2c(nc3ccc(O)cc13)-c1cc3c(c(=O)n1C2)COC(=O)[C@]3(O)CC", "note": "+ CCn1c(-c2cc(N3CCN(C)CC3)cnc2C(C)OC)c2c3cc(ccc31)-c1csc(n1)CC(NC(=O)C1CC1C)C(=O)N1CCCC(N1)C(=O)OCC(C)(C)C2;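 note: spheroids exposed to compounds for 7 days before readout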;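 for viability, T/C: 100% = DMSO vehicle control viability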", "values": [{"measurement": "IC50", "setting": "second compound 0.000949 µM", "result": "< 0.949", "unit": "nM"}, {"measurement": "IC50", "setting": "second compound 0.003 µM", "result": "< 0.949", "unit": "nM"}, {"measurement": "IC50", "setting": "second compound 0.00949 µM", "result": "< 0.949", "unit": "nM"}, {"measurement": "IC50", "setting": "second compound 0.03 µM", "result": "< 0.949", "unit": "nM"}, {"measurement": "IC50", "setting": "second compound 0.0949 µM", "result": "< 0.949", "unit": "nM"}, {"measurement": "IC50", "setting": "second compound 0.3 µM", "result": "< 0.949", "unit": "nM"}, {"measurement": "viability, T/C", "setting": "second compound 0.000949 µM, first compound 0.000949 µM", "result": 24.6, "unit": "%"}, {"measurement": "viability, T/C", "setting": "second compound 0.000949 µM, first compound 0.003 µM", "result": 24.4, "unit": "%"}, {"measurement": "viability, T/C", "setting": "second compound 0.000949 µM, first compound 0.00949 µM", "result": 19.9, "unit": "%"}, {"measurement": "viability, T/C", "setting": "second compound 0.000949 µM, first compound 0.03 µM", "result": 20.5, "unit": "%"}, {"measurement": "viability, T/C", "setting": "second compound 0.000949 µM, first compound 0.0949 µM", "result": 18.1, "unit": "%"}, {"measurement": "viability, T/C", "setting": "second compound 0.000949 µM, first compound 0.3 µM", "result": 9.95, "unit": "%"}, {"measurement": "viability, T/C", "setting": "second compound 0.003 µM, first compound 0.000949 µM", "result": 25.8, "unit": "%"}, {"measurement": "viability, T/C", "setting": "second compound 0.003 µM, first compound 0.003 µM", "result": 16.7, "unit": "%"}, {"measurement": "viability, T/C", "setting": "second compound 0.003 µM, first compound 0.00949 µM", "result": 12.8, "unit": "%"}, {"measurement": "viability, T/C", "setting": "second compound 0.003 µM, first compound 0.03 µM", "result": 13.4, "unit": "%"}, {"measurement": "viability, T/C", "setting": "second compound 0.003 µM, first compound 0.0949 µM", "result": 10.3, "unit": "%"}, {"measurement": "viability, T/C", "setting": "second compound 0.003 µM, first compound 0.3 µM", "result": 5.76, "unit": "%"}, {"measurement": "viability, T/C", "setting": "second compound 0.00949 µM, first compound 0.000949 µM", "result": 17.3, "unit": "%"}, {"measurement": "viability, T/C", "setting": "second compound 0.00949 µM, first compound 0.003 µM", "result": 10.6, "unit": "%"}, {"measurement": "viability, T/C", "setting": "second compound 0.00949 µM, first compound 0.00949 µM", "result": 13.3, "unit": "%"}, {"measurement": "viability, T/C", "setting": "second compound 0.00949 µM, first compound 0.03 µM", "result": 10.5, "unit": "%"}, {"measurement": "viability, T/C", "setting": "second compound 0.00949 µM, first compound 0.0949 µM", "result": 7.7, "unit": "%"}, {"measurement": "viability, T/C", "setting": "second compound 0.00949 µM, first compound 0.3 µM", "result": 4.19, "unit": "%"}, {"measurement": "viability, T/C", "setting": "second compound 0.03 µM, first compound 0.000949 µM", "result": 13.7, "unit": "%"}, {"measurement": "viability, T/C", "setting": "second compound 0.03 µM, first compound 0.003 µM", "result": 14.1, "unit": "%"}, {"measurement": "viability, T/C", "setting": "second compound 0.03 µM, first compound 0.00949 µM", "result": 9.58, "unit": "%"}, {"measurement": "viability, T/C", "setting": "second compound 0.03 µM, first compound 0.03 µM", "result": 8.62, "unit": "%"}, {"measurement": "viability, T/C", "setting": "second compound 0.03 µM, first compound 0.0949 µM", "result": 5.46, "unit": "%"}, {"measurement": "viability, T/C", "setting": "second compound 0.03 µM, first compound 0.3 µM", "result": 4.56, "unit": "%"}, {"measurement": "viability, T/C", "setting": "second compound 0.0949 µM, first compound 0.000949 µM", "result": 12.9, "unit": "%"}, {"measurement": "viability, T/C", "setting": "second compound 0.0949 µM, first compound 0.003 µM", "result": 11.2, "unit": "%"}, {"measurement": "viability, T/C", "setting": "second compound 0.0949 µM, first compound 0.00949 µM", "result": 10.6, "unit": "%"}, {"measurement": "viability, T/C", "setting": "second compound 0.0949 µM, first compound 0.03 µM", "result": 8.43, "unit": "%"}, {"measurement": "viability, T/C", "setting": "second compound 0.0949 µM, first compound 0.0949 µM", "result": 5.36, "unit": "%"}, {"measurement": "viability, T/C", "setting": "second compound 0.0949 µM, first compound 0.3 µM", "result": 4.56, "unit": "%"}, {"measurement": "viability, T/C", "setting": "second compound 0.3 µM, first compound 0.000949 µM", "result": 10.8, "unit": "%"}, {"measurement": "viability, T/C", "setting": "second compound 0.3 µM, first compound 0.003 µM", "result": 10.7, "unit": "%"}, {"measurement": "viability, T/C", "setting": "second compound 0.3 µM, first compound 0.00949 µM", "result": 9.64, "unit": "%"}, {"measurement": "viability, T/C", "setting": "second compound 0.3 µM, first compound 0.03 µM", "result": 10.6, "unit": "%"}, {"measurement": "viability, T/C", "setting": "second compound 0.3 µM, first compound 0.0949 µM", "result": 5.65, "unit": "%"}, {"measurement": "viability, T/C", "setting": "second compound 0.3 µM, first compound 0.3 µM", "result": 3.94, "unit": "%"}]}
{"compound": "C=CC(=O)Nc1cc(Nc2nccc(-c3cn(C)c4ccccc34)n2)c(OC)cc1N(C)CCN(C)C", "note": "+ CCn1c(-c2cccnc2C(C)OC)c2c3cc(ccc31)N1CCOC(CC(NC(=O)C(C(C)C)N(C)C(=O)C3(F)CCN(C(=O)C#CC(C)(C)N(C)C)CC3)C(=O)N3CCCC(N3)C(=O)OCC(C)(C)C2)C1", "values": [{"measurement": "IC50", "setting": "second compound 0.000949 µM", "result": "< 3.16", "unit": "nM"}, {"measurement": "IC50", "setting": "second compound 0.003 µM", "result": 382, "unit": "nM"}, {"measurement": "IC50", "setting": "second compound 0.00949 µM", "result": "< 3.16", "unit": "nM"}, {"measurement": "IC50", "setting": "second compound 0.03 µM", "result": "< 3.16", "unit": "nM"}, {"measurement": "IC50", "setting": "second compound 0.0949 µM", "result": "< 3.16", "unit": "nM"}, {"measurement": "IC50", "setting": "second compound 0.3 µM", "result": "< 3.16", "unit": "nM"}, {"measurement": "viability, T/C", "setting": "second compound 0.000949 µM, first compound 0.00316 µM", "result": 24.4, "unit": "%"}, {"measurement": "viability, T/C", "setting": "second compound 0.000949 µM, first compound 0.01 µM", "result": 22.9, "unit": "%"}, {"measurement": "viability, T/C", "setting": "second compound 0.000949 µM, first compound 0.0316 µM", "result": 16.2, "unit": "%"}, {"measurement": "viability, T/C", "setting": "second compound 0.000949 µM, first compound 0.1 µM", "result": 20.1, "unit": "%"}, {"measurement": "viability, T/C", "setting": "second compound 0.000949 µM, first compound 0.316 µM", "result": 19.2, "unit": "%"}, {"measurement": "viability, T/C", "setting": "second compound 0.000949 µM, first compound 1 µM", "result": 12.8, "unit": "%"}, {"measurement": "viability, T/C", "setting": "second compound 0.003 µM, first compound 0.00316 µM", "result": 89.7, "unit": "%"}, {"measurement": "viability, T/C", "setting": "second compound 0.003 µM, first compound 0.01 µM", "result": 91.4, "unit": "%"}, {"measurement": "viability, T/C", "setting": "second compound 0.003 µM, first compound 0.0316 µM", "result": 69.4, "unit": "%"}, {"measurement": "viability, T/C", "setting": "second compound 0.003 µM, first compound 0.1 µM", "result": 69.9, "unit": "%"}, {"measurement": "viability, T/C", "setting": "second compound 0.003 µM, first compound 0.316 µM", "result": 53.1, "unit": "%"}, {"measurement": "viability, T/C", "setting": "second compound 0.003 µM, first compound 1 µM", "result": 35.4, "unit": "%"}, {"measurement": "viability, T/C", "setting": "second compound 0.00949 µM, first compound 0.00316 µM", "result": 22.7, "unit": "%"}, {"measurement": "viability, T/C", "setting": "second compound 0.00949 µM, first compound 0.01 µM", "result": 18.3, "unit": "%"}, {"measurement": "viability, T/C", "setting": "second compound 0.00949 µM, first compound 0.0316 µM", "result": 20.5, "unit": "%"}, {"measurement": "viability, T/C", "setting": "second compound 0.00949 µM, first compound 0.1 µM", "result": 19.2, "unit": "%"}, {"measurement": "viability, T/C", "setting": "second compound 0.00949 µM, first compound 0.316 µM", "result": 16.1, "unit": "%"}, {"measurement": "viability, T/C", "setting": "second compound 0.00949 µM, first compound 1 µM", "result": 12.8, "unit": "%"}, {"measurement": "viability, T/C", "setting": "second compound 0.03 µM, first compound 0.00316 µM", "result": 25.8, "unit": "%"}, {"measurement": "viability, T/C", "setting": "second compound 0.03 µM, first compound 0.01 µM", "result": 20.8, "unit": "%"}, {"measurement": "viability, T/C", "setting": "second compound 0.03 µM, first compound 0.0316 µM", "result": 16.8, "unit": "%"}, {"measurement": "viability, T/C", "setting": "second compound 0.03 µM, first compound 0.1 µM", "result": 16.9, "unit": "%"}, {"measurement": "viability, T/C", "setting": "second compound 0.03 µM, first compound 0.316 µM", "result": 14.2, "unit": "%"}, {"measurement": "viability, T/C", "setting": "second compound 0.03 µM, first compound 1 µM", "result": 15.5, "unit": "%"}, {"measurement": "viability, T/C", "setting": "second compound 0.0949 µM, first compound 0.00316 µM", "result": 22, "unit": "%"}, {"measurement": "viability, T/C", "setting": "second compound 0.0949 µM, first compound 0.01 µM", "result": 22.4, "unit": "%"}, {"measurement": "viability, T/C", "setting": "second compound 0.0949 µM, first compound 0.0316 µM", "result": 20.7, "unit": "%"}, {"measurement": "viability, T/C", "setting": "second compound 0.0949 µM, first compound 0.1 µM", "result": 16.6, "unit": "%"}, {"measurement": "viability, T/C", "setting": "second compound 0.0949 µM, first compound 0.316 µM", "result": 15.9, "unit": "%"}, {"measurement": "viability, T/C", "setting": "second compound 0.0949 µM, first compound 1 µM", "result": 17.2, "unit": "%"}, {"measurement": "viability, T/C", "setting": "second compound 0.3 µM, first compound 0.00316 µM", "result": 22.5, "unit": "%"}, {"measurement": "viability, T/C", "setting": "second compound 0.3 µM, first compound 0.01 µM", "result": 21.6, "unit": "%"}, {"measurement": "viability, T/C", "setting": "second compound 0.3 µM, first compound 0.0316 µM", "result": 21.3, "unit": "%"}, {"measurement": "viability, T/C", "setting": "second compound 0.3 µM, first compound 0.1 µM", "result": 20.1, "unit": "%"}, {"measurement": "viability, T/C", "setting": "second compound 0.3 µM, first compound 0.316 µM", "result": 21.7, "unit": "%"}, {"measurement": "viability, T/C", "setting": "second compound 0.3 µM, first compound 1 µM", "result": 21.4, "unit": "%"}]}
